Results: patent US20040224878A1, “Fertilization of aged oocytes” (priority 2000, published 2004)

Experiments:
[1] = test system: mouse cumulus-oocyte complex (COC); details: addition to the culture medium of mouse COC; cited from earlier work
human oocytes = details: concentrations around those observed in vivo, culture medium of human oocytes during IVF; cited from earlier work
aged oocytes = assay: Cell cycle progression (GV, GVBD, PB) of young and aged oocytes after 22 h culture; type: cell-based, CBA/Ca mouse; details: 10 μM FF-MAS in Hx-medium, aged (35-38 week old) vs young (5-6 weeks old) oocytes, FIG. 1
Protocol: The CBA/Ca mouse provides a model system for studies on the maternal age effect of oocytes (7). This model is characterised by its relatively limited pool of follicles with low number of aged oocytes in the sexually mature adult female, similar to the human. All the following studies were carried out in the CBA/Ca mice. Animals were kept under controlled lighting and temperature.
Oocytes from young (5-6 weeks old) and aged (35-38 week old) CBA/Ca mice in the diestrus stage of the cycle were investigated. Oocytes were isolated in Hx-medium (see below) under a stereo microscope by manual rupture of the follicles using a pair of 27 gauge needles. […]
(a) By the end of the culture period cell cycle progression was analysed by counting the number of oocytes with germinal vesicle (GV) or germinal vesicle breakdown (GVB) and those with polar body (PB) by using a stereo microscope or an inverted microscope with differential interference contrast equipment. The percentage of oocytes with GV, GVBD and PB per total number of oocytes, respectively, was calculated in the 4 treatment groups of young and aged oocytes, respectively.

[2] = test system: aged metaphase 11 oocytes; assay: Cytogenetic analysis (chromosome count, hyperploidy) of cultured oocytes; type: cell-based, CBA/Ca mouse; details: 10 μM FF-MAS given alone or in combination with Hx, 22 hours culture, FIG. 2
Protocol: The CBA/Ca mouse provides a model system for studies on the maternal age effect of oocytes (7). This model is characterised by its relatively limited pool of follicles with low number of aged oocytes in the sexually mature adult female, similar to the human. All the following studies were carried out in the CBA/Ca mice. Animals were kept under controlled lighting and temperature. Oocytes from young (5-6 weeks old) and aged (35-38 week old) CBA/Ca mice in the diestrus stage of the cycle were investigated. Oocytes were isolated in Hx-medium (see below) under a stereo microscope by manual rupture of the follicles using a pair of 27 gauge needles. Spherical, naked oocytes (NO) displaying an intact germinal vesicle (GV) were placed in a-minimum essential medium (x-MEM without ribonucleosides, Gibco BRL, Cat. No. 22561) supplemented with 3 mM hypoxanthine (Sigma Cat. No. H-9377), 8 mg/ml Human Serum Albumin (HSA, State Serum Institute, Denmark), 0.23 mM pyruvate (Sigma, Cat. No. S-8636), 2 mM glutamine (Flow Cat. No. 16-801), 100 IU/ml penicillin and 100 μg/ml streptomycin (Flow, Cat No. 16-700). This medium was designated Hx-medium. […] The number of chromosomes was counted in each oocyte. […]

oocytes = details: mouse; cited from earlier work

Molecule: Cl.Cl.Clc1ccccc1CNCC1CCC(CNCc2ccccc2Cl)CC1 (centres unmarked) [AY9944]
- accumulation of FF-MAS [1]: has the capacity to induce accumulation of FF-MAS

Molecule: EGF: growth factor enhancing endogenous production of MAS in the cumulus enclosed oocyte (NSDSECPLSHDGYCLHDGVCMYIEALDKYACNCVVGYIGERCQYRDLKWWELR; UniProt P01133 971-1023, looked up)
- implantation rates of the retrieved oocytes (human oocytes): significant improved implantation rates

Molecule: CC(C)=CCC[C@@H](C)[C@H]1CC=C2C3=C(CC[C@@]21C)[C@@]1(C)CC[C@H](O)C(C)(C)[C@@H]1CC3 [FF-MAS, 4,4-dimethyl-5α-cholesta-8,14,24-triene-31-ol]
- maturation to metaphase 11 (cell cycle progression) (aged oocytes): more successful to mature to metaphase 11 than young oocytes
- numerical aberration rate, e.g. hyperploidy [2]: reduces numerical aberration rate
- nuclear (meiotic) and cytoplasmic maturation (oocytes): induces nuclear (meiotic) and cytoplasmic maturation
